Data on one compound can be found in publication PMC11674305, “Inhibition of Neural Crest Cell Migration by Strobilurin Fungicides and Other Mitochondrial Toxicants” (Cells, 2024).

Data set [1] has as its system complex I (cI). The experiment in a line: Electron transport chain complex activity in permeabilized NCC (Seahorse). It counts as cell-based, human. Conditions: 60 μM, due to block of cIII. From the text: (§1) Magel et al. (2024): Inhibition of neural crest cells migration by strobilurin fungicides
(§2) Figure S9. Inhibition of electron transport chain complexes by picoxystrobin in neural crest […]
(§3) NCC were exposed to the BMC10(V) of the cMINC assay (60 μ M). The grey area indicates th e non-significant range of the assay (≤ 25% change). The effect on complex IV (cIV) was non-significant (green bar). The purple bar indicates complex III (cIII) inhibition. Yellow bars […]
(§4) that for these assays, the electrons have to pass cIII to reach cIV (oxygen consumption), i.e. electrons from cI (or cII) cannot be used for the reduction of oxygen, as they need to flow through cIII (which is blocked). The pattern of inhibition is indicative of cIII as illustrated earlier (Delp et al., 2019; van der Stel et al., 2020).
(§5) To investigate the inhibition pattern of picoxystrobin, NCC were permeabilized and complex-specific substrates and inhibitors were sequentially injected as described earlier (Delp et al., 2019). In detail, cells were permeabilized with MAS buffer (220 mM mannitol, 1 mM ADP, 70 mM sucrose, 10 mM KH2PO4, 5 mM MgCl2, 2 mM HEPES, 1 mM EGTA, 4 mg/ml fatty acid-free BSA, pH = 7.2) supplemented with 25 μ g/mL digitonin. Seahorse measurements were started directly afterwards, and basal OCRs were assessed for internal normalization. Then picoxystrobin was injected and cI activity was assessed. For this, cII was inhibited (5 mM malonat) and substrates for cI (2 mM […], 2.5 mM malic acid, 5 mM pyruvic acid) […]
(§6) were added. […] Next, cI was […]
(§7) inhibited (0.5 μ M rotenone) and substrates of cIII (250 μM duroquinol ) were added. At this step, cIII inhibition data for cIII were obtained. In the case of a cI inhibition (e.g. by rotenone), […]
(§8) To assess cII activity, cI was inhibited and the substrate of cII (10 mM succinic acid) was added.
(§9) Lastly, to assess cIV activity, cII was inhibited and the substrates of cIV (125 μ M TMPD, 2 mM ascorbic acid) were added. Data were compared to the solvent control. Details and assay validation have been provided earlier (Delp et al., 2019; van der Stel et al., 2020). […]

Data set [2] has as its system complex II (cII). Described as above. In kind it is cell-based, human. Conditions: 60 μM, due to block of cIII.
Text: as §1, §2, §3, §4, §5, §6, §7, §8, §9

Data set [3] relates to complex IV (cIV). Described as above. It counts as cell-based, human. Conditions: 60 μM (BMC10(V) of cMINC).
Text: as §1, §2, §3, §4, §5, §6, §7, §8, §9

The nature of data set [4]: Estimate of maximal tolerable/acceptable exposure. On the set-up: species or system human. Particulars: per day; LOEL with safety factor of 100, same as ADI of FAO/WHO 2012 report. As to the method: An estimate of the maximal external exposure was obtained as the next step of the study. We used two different approaches, based on (i) setting the acceptable daily intake as the upper limit and (ii) referring to the no-observed-effect level (NOEL) in an animal study (detailed in Figure 7A). We concluded from both approaches that a plausible upper daily tolerated threshold is 0.09 mg/kg. This value was used in a physiologically based kinetic (PBK) model to obtain concentration time data for different tissues in mothers and their fetus. Assuming a repeated daily exposure, the maximal maternal plasma concentrations were predicted to be in the 200–300 nM range. The maximal steady-state fetal brain concentrations were predicted to be in the 100 nM range (5th and 95th percentiles for exposure in the population of 100 subjects were 60–190 nM) (Figure 7B). […] Next, we used some advanced assays to obtain a better understanding of the potency range of picoxystrobin when used in different experimental setups. […]
Figure 7 Comparison of internal exposure estimates and primary effect potency. […] Data are expressed as means ± SEM from three independent biological experiments. ^# LOEL of animal study is based on a 90-day dog study (REF: https://www.fao.org/3/i3111e/i3111e.pdf (accessed on 15 June 2024)). *^,§ There is also an old (no longer valid) value by EFSA of 0.043 mg/kg/day from the year 2004 [71]. […]

As for `CO/C=C(/C(=O)OC)c1ccccc1COc1cccc(C(F)(F)F)n1` [Picoxystrobin, picoxystrobin], in data set [1], the “effect on complex I (cI)” value is “apparent inhibition”. For the same compound, the “effect on complex II (cII)” value in data set [2] is “apparent inhibition”. Besides, the “effect on complex IV (cIV)” value in data set [3] was “non-”. Also, in data set [4], the “upper daily tolerated threshold / estimate of max. exposure [tolerable/acceptable]” value is recorded as 0.09 mg/kg.
